pIC50: −log10 of the molar value. Activity calls are given as the source filed them. No cut-off for these calls is given here.
Molecular target: T1, Induced myeloid leukemia cell differentiation protein Mcl-1 (Homo sapiens, UniProt Q07820)
Details: not given

T1 sequence (Q07820 whole entry): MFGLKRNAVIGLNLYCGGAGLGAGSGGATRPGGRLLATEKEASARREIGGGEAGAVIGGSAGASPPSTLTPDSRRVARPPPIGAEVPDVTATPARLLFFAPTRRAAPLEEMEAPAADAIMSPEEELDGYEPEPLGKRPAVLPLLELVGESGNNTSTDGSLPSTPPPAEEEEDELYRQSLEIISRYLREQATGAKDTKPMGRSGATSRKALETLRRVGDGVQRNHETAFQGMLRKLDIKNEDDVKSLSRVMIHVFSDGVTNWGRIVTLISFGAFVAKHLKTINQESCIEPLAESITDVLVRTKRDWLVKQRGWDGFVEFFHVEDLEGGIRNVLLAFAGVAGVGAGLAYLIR

Activity	Structure (SMILES)
inactive	CN(C)C(=O)Nc1ccc(C(F)(F)F)cc1
inactive	NS(=O)(=O)c1ccc(F)cc1

Molecular target: T1, Induced myeloid leukemia cell differentiation protein Mcl-1
Details: not given
Remark: another data set of the same source

Structure (SMILES)	ΔTm
C[C@@H]1CN([C@@H](C)C(=O)O)C(=O)c2cccc(NS(=O)(=O)c3ccccc3F)c2O[C@@H]1CN(C)C(=O)Nc1ccc(C(F)(F)F)cc1	1.9 °C
C[C@@H]1CN([C@@H](C)C(=O)O)C(=O)c2cccc(NS(=O)(=O)c3ccc(F)cc3)c2O[C@@H]1CN(C)C(=O)Nc1cccc(C(F)(F)F)c1	0.2 °C
C[C@@H]1CN([C@@H](C)C(=O)O)C(=O)c2cccc(NS(=O)(=O)CCc3ccccc3)c2O[C@@H]1CN(C)C(=O)Nc1ccc(C(F)(F)F)cc1	0.4 °C
COc1ccc(NC(=O)N(C)C[C@H]2Oc3c(NS(=O)(=O)c4ccc(F)cc4)cccc3C(=O)N([C@@H](C)C(=O)O)C[C@H]2C)cc1	0.2 °C
C[C@@H]1CN([C@@H](C)C(=O)O)C(=O)c2cccc(NS(=O)(=O)c3ccc(F)cc3)c2O[C@@H]1CN(C)C(=O)Nc1cccc2ccccc12	-0.1 °C
C[C@@H]1CN([C@@H](C)C(=O)O)C(=O)c2cccc(NS(=O)(=O)c3ccc(F)cc3)c2O[C@@H]1CN(C)C(=O)Nc1ccccc1C(F)(F)F	0.2 °C
C[C@@H]1CN([C@@H](C)C(=O)O)C(=O)c2cccc(NS(=O)(=O)Cc3ccccc3)c2O[C@@H]1CN(C)C(=O)Nc1ccc(C(F)(F)F)cc1	1.4 °C
C[C@@H]1CN([C@@H](C)C(=O)O)C(=O)c2cccc(NS(=O)(=O)c3ccc(F)cc3)c2O[C@@H]1CN(C)C(=O)Nc1ccc2ccccc2c1	0.8 °C
C[C@@H]1CN([C@@H](C)C(=O)O)C(=O)c2cccc(NS(=O)(=O)c3ccc(F)cc3)c2O[C@@H]1CN(C)C(=O)Nc1ccccc1	0.2 °C

The remaining lines, values ahead:

ΔTm	Structure (SMILES)
3.4 °C	C[C@@H]1CN([C@@H](C)C(=O)O)C(=O)c2cccc(NS(=O)(=O)c3cccc(F)c3)c2O[C@@H]1CN(C)C(=O)Nc1ccc(C(F)(F)F)cc1
2.8 °C	C[C@@H]1CN([C@@H](C)C(=O)O)C(=O)c2cccc(NS(=O)(=O)c3ccccc3)c2O[C@@H]1CN(C)C(=O)Nc1ccc(C(F)(F)F)cc1

Molecular target: T1, Induced myeloid leukemia cell differentiation protein Mcl-1
Details: 100 uM

ΔTm	Structure (SMILES)
1.9 °C	C[C@@H]1CN([C@@H](C)CO)C(=O)c2cccc(NS(=O)(=O)c3ccc(F)cc3)c2O[C@@H]1CN(C)C(=O)Nc1ccc(C(F)(F)F)cc1

Molecular target: T1, Induced myeloid leukemia cell differentiation protein Mcl-1
Details: 25 uM

ΔTm	Structure (SMILES)
0.3 °C	C[C@@H]1CN([C@@H](C)CO)C(=O)c2cccc(NS(=O)(=O)c3ccccc3)c2O[C@@H]1CN(C)C(=O)Nc1ccc(C(F)(F)F)cc1
0.6 °C	C[C@@H]1CN([C@@H](C)CO)C(=O)c2cccc(NS(=O)(=O)c3ccc(F)cc3)c2O[C@@H]1CN(C)C(=O)Nc1ccc(C(F)(F)F)cc1

Molecular target: T1, Induced myeloid leukemia cell differentiation protein Mcl-1
Details: not given
Remark: another data set of the same source

Activity	Structure (SMILES)
inactive	CN(C)C(=O)Nc1ccc(C(F)(F)F)cc1
inactive	NS(=O)(=O)c1ccc(F)cc1

Molecular target: T1, Induced myeloid leukemia cell differentiation protein Mcl-1
Details: 800 uM

Activity	Structure (SMILES)
inactive	C[C@@H]1CN([C@@H](C)CO)C(=O)c2cccc(NS(=O)(=O)c3ccc(F)cc3)c2O[C@@H]1CN(C)C(=O)Nc1ccc(C(F)(F)F)cc1

Molecular target: T1, Induced myeloid leukemia cell differentiation protein Mcl-1
Details: not given
Remark: another data set of the same source

Structure (SMILES)	pIC50
C[C@@H]1CN([C@@H](C)C(=O)O)C(=O)c2cccc(NS(=O)(=O)c3ccccc3F)c2O[C@@H]1CN(C)C(=O)Nc1ccc(C(F)(F)F)cc1	4.67
C[C@@H]1CN([C@@H](C)C(=O)O)C(=O)c2cccc(NS(=O)(=O)c3ccc(F)cc3)c2O[C@@H]1CN(C)C(=O)Nc1cccc(C(F)(F)F)c1	< 4.60
C[C@@H]1CN([C@@H](C)C(=O)O)C(=O)c2cccc(NS(=O)(=O)CCc3ccccc3)c2O[C@@H]1CN(C)C(=O)Nc1ccc(C(F)(F)F)cc1	< 4.30
COc1ccc(NC(=O)N(C)C[C@H]2Oc3c(NS(=O)(=O)c4ccc(F)cc4)cccc3C(=O)N([C@@H](C)C(=O)O)C[C@H]2C)cc1	< 4.30
C[C@@H]1CN([C@@H](C)C(=O)O)C(=O)c2cccc(NS(=O)(=O)c3ccc(F)cc3)c2O[C@@H]1CN(C)C(=O)Nc1cccc2ccccc12	< 4.30
C[C@@H]1CN([C@@H](C)C(=O)O)C(=O)c2cccc(NS(=O)(=O)c3ccc(F)cc3)c2O[C@@H]1CN(C)C(=O)Nc1ccccc1C(F)(F)F	< 4.30
C[C@@H]1CN([C@@H](C)C(=O)O)C(=O)c2cccc(NS(=O)(=O)Cc3ccccc3)c2O[C@@H]1CN(C)C(=O)Nc1ccc(C(F)(F)F)cc1	< 4.30
C[C@@H]1CN([C@@H](C)C(=O)O)C(=O)c2cccc(NS(=O)(=O)c3ccc(F)cc3)c2O[C@@H]1CN(C)C(=O)Nc1ccc2ccccc2c1	< 4.60
C[C@@H]1CN([C@@H](C)C(=O)O)C(=O)c2cccc(NS(=O)(=O)c3ccc(F)cc3)c2O[C@@H]1CN(C)C(=O)Nc1ccccc1	< 4.30

The next lines start with the values.

pIC50	Structure (SMILES)
5.39	C[C@@H]1CN([C@@H](C)C(=O)O)C(=O)c2cccc(NS(=O)(=O)c3cccc(F)c3)c2O[C@@H]1CN(C)C(=O)Nc1ccc(C(F)(F)F)cc1
5.00	C[C@@H]1CN([C@@H](C)C(=O)O)C(=O)c2cccc(NS(=O)(=O)c3ccccc3)c2O[C@@H]1CN(C)C(=O)Nc1ccc(C(F)(F)F)cc1

From ChEMBL document CHEMBL3351223, “Single Diastereomer of a Macrolactam Core Binds Specifically to Myeloid Cell Leukemia 1 (MCL1)” (ACS Med Chem Lett, 2014)
